Assay results published in patent US6448270B1, “4-substituted piperidine analogs and their use as subtype selective NMDA receptor antagonists” (Warner-Lambert Company, priority 1995, dated 2002).
Read-outs that look alike come from different tables or passages of the source.

How the values were obtained:
NR1A/NR2B NMDA receptor = NR1A/NR2B NMDA receptor (Rattus norvegicus, UniProt P35439+Q00960); assay: Electrophysiological assay, cloned NMDA receptor subunits expressed in Xenopus oocytes (1A/2B); format: cell-based
NR1A/NR2B NMDA receptor, sequence (Q00960 27-1482, other chains not shown): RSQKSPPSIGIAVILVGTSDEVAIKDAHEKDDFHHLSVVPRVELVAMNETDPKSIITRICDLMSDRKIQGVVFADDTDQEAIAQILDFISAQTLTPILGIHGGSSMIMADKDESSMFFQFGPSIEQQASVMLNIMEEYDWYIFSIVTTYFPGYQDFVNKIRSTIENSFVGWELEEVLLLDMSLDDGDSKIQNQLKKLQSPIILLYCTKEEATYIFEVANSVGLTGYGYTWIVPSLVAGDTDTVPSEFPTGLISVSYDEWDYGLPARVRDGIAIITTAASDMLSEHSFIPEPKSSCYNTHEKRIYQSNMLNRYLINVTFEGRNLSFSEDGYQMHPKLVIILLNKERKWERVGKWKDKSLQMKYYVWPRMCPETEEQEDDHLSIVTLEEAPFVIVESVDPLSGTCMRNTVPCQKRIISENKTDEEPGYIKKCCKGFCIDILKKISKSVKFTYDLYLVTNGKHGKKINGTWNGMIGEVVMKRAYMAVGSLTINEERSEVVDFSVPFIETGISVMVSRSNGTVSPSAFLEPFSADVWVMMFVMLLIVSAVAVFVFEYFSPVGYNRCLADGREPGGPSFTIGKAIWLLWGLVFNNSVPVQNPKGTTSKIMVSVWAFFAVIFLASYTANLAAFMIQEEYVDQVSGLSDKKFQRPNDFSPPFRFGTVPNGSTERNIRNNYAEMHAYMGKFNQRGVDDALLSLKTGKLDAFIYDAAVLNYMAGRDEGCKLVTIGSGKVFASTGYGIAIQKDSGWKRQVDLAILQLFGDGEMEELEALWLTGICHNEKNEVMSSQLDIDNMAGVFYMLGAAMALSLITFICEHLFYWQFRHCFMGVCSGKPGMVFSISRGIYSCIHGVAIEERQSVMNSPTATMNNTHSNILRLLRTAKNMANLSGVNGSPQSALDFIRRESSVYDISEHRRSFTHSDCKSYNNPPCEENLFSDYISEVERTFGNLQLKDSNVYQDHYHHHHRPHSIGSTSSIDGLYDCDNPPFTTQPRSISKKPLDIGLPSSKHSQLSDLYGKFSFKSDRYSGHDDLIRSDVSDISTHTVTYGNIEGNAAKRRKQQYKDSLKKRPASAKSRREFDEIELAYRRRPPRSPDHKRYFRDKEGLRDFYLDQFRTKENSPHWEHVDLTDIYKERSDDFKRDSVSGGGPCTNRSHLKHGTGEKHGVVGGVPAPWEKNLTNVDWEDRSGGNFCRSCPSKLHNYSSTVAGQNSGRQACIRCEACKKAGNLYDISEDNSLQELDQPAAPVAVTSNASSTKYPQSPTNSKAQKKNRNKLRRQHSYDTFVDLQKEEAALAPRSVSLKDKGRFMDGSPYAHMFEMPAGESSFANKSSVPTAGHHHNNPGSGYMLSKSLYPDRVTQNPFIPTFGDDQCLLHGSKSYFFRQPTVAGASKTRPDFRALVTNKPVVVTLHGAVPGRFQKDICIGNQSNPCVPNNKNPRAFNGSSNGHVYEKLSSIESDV
Excerpt: (§1) Electrophysiological Assays at NMDA Receptor Subunits
(§2) cDNA clones encoding the NR1A, NR2A, NR2B, NR2C and NR2D rat NMDA receptor subtypes were provided by Dr. P. H. Seeburg (see, Moriyoshi et al., Nature (Lond.) 354:31-37 (1991); Kutsuwada et al., Nature (Lond.) 358:36-41 (1992) Monyer et al., Science (Washington, D.C.) 256:1217-1221 (1992); Ikeda et al., FEBS Lett. 313:34-38 (1992); Ishii et al., J. Biol. Chem. 268:2836-2843 (1993) for details of these clones or their mouse homologs). The clones were transformed into appropriate host bacteria and plasmid preparations were made with conventional DNA purification techniques. A sample of each clone was linearized by restriction enzyme digestion and cRNA was synthesized with T3 RNA polymerase. The CRNA was diluted to 400 ng/μl and stored in 1 μl aliquots at −80° C. until injection.
Mature female Xenopus laevis were anaesthetized (20-40 min) using 0.15% 3-aminobenzoic acid ethyl ester (MS-222) and 2-4 ovarian lobes were surgically removed. Oocytes at developmental stages IV-VI (Dumont, J. N., J. Morphol. 136:153-180 (1972)), were dissected from the ovary still surrounded by enveloping ovarian tissues. Follicle-enclosed oocytes were micro-injected with 1:1 mixtures of cRNA:NR1A+NR2A, 2B, 2C or 2D; injecting ˜2,5, or 20 ng of RNA encoding each receptor subunit. […]
(§3) Electrical recordings were made using a conventional two-electrode voltage clamp (Dagan TEV-200) over periods ranging between 3-21 days following injection. […] Inhibitory potency of the novel antagonists was assessed on responses elicited by fixed concentrations of glutamate and glycine, by measuring reductions in current induced by progressively increasing concentrations of antagonist. […]
(§4) in which Icontrol is the current evoked by agonists alone, pIC50=−log IC50, IC50 is the concentration of antagonist that produces half maximal inhibition, and n is the slope factor. […] For incomplete curves analysis by fitting was unreliable and IC50 values were calculated by simple regression over linear portions of the curves (Origin: Microcal Software).

NR1A/NR2A NMDA receptor = NR1A/NR2A NMDA receptor (Rattus norvegicus, UniProt P35439+Q00959); assay: Electrophysiological assay, cloned NMDA receptor subunits expressed in Xenopus oocytes (1A/2A); format: cell-based
NR1A/NR2A NMDA receptor, sequence (Q00959 20-1464 limits assumed, other chains not shown): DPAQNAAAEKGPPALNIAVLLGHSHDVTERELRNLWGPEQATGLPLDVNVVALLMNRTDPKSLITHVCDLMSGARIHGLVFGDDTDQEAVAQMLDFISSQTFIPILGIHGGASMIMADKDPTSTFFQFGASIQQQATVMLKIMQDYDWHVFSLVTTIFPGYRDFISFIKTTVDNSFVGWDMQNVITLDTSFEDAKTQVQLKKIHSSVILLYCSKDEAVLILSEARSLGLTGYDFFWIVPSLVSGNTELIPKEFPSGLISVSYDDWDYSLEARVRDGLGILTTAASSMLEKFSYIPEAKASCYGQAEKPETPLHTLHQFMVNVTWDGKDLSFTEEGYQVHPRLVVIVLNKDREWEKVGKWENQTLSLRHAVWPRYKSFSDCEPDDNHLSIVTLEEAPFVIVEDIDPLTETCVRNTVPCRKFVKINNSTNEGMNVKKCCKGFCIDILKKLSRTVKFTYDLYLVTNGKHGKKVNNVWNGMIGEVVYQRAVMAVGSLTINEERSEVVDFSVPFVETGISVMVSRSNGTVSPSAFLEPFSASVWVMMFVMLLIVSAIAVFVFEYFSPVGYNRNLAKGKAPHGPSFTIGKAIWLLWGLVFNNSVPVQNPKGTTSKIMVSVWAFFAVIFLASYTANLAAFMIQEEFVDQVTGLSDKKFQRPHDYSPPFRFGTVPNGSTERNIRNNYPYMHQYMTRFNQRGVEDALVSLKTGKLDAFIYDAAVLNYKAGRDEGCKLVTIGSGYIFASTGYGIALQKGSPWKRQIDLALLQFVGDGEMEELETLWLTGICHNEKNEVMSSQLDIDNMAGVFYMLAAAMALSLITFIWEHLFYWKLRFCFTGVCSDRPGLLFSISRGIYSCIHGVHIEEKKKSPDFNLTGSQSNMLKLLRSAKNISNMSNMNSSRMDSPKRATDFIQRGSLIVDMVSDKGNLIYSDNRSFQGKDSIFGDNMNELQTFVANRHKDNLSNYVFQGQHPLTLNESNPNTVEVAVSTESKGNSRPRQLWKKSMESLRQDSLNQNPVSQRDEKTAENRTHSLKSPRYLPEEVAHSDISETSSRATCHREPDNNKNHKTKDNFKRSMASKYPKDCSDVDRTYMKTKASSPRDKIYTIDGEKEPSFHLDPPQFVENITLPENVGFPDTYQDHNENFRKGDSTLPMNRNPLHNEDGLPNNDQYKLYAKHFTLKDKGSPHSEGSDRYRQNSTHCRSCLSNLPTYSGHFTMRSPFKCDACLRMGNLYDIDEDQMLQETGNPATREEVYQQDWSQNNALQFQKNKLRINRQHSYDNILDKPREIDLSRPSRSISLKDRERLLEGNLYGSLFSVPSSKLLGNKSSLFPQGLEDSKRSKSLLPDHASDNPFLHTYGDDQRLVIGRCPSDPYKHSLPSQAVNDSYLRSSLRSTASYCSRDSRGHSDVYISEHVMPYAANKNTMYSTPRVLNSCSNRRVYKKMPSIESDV
Excerpt: as §1
as §2, with “A sample of each clone was linearized by restriction enzyme digestion and cRNA was synthesized with T3 RNA polymerase. The CRNA was diluted to 400 ng/μl and stored in 1 μl aliquots at −80° C. until injection.” left out
as §3, §4

NR1A/NR2C NMDA receptor = NR1A/NR2C NMDA receptor (Rattus norvegicus, UniProt P35439+Q00961); assay: Electrophysiological assay, cloned NMDA receptor subunits expressed in Xenopus oocytes (1A/2C); format: cell-based; conditions: read-out: Subunits (IC50 (μM)) 1A/2C, mean IC50, inhibition of NMDA-activated membrane current responses, glutamate 100 μM + glycine
NR1A/NR2C NMDA receptor, sequence (Q00961 20-1237, other chains not shown): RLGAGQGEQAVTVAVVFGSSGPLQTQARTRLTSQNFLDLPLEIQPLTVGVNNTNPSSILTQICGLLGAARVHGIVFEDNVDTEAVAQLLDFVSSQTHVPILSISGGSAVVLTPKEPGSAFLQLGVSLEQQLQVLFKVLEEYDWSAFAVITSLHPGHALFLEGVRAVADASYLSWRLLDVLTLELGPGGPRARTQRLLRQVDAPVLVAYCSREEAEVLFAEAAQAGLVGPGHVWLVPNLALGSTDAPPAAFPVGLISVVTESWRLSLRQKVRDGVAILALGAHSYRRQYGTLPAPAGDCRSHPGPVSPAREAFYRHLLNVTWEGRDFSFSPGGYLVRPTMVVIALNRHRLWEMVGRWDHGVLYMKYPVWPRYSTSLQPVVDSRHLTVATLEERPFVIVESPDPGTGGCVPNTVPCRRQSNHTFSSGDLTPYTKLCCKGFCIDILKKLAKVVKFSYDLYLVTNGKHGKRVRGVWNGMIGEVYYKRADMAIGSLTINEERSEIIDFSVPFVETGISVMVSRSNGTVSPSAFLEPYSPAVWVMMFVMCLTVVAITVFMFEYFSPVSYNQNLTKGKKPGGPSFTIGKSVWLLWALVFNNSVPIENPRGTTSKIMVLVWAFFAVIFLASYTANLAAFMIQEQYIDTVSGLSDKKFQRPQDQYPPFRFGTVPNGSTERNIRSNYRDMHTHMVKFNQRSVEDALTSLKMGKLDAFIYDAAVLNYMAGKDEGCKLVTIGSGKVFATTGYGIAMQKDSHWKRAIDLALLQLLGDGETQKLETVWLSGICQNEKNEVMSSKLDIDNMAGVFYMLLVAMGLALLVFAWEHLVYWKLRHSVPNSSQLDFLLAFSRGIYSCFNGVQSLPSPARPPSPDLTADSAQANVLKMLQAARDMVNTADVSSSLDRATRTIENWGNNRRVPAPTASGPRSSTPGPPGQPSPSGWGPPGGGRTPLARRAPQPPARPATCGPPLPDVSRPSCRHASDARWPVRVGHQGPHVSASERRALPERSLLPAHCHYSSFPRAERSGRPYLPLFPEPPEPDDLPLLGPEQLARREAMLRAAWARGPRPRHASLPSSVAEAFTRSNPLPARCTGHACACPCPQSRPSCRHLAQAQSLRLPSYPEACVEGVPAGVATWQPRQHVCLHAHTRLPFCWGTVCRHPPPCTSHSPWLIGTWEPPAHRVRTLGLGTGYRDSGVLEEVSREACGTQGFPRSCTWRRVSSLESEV
Excerpt: as §1
as §2, with “A sample of each clone was linearized by restriction enzyme digestion and cRNA was synthesized with T3 RNA polymerase. The CRNA was diluted to 400 ng/μl and stored in 1 μl aliquots at −80° C. until injection.” left out
as §3, §4

NR1A/NR2D NMDA receptor = NR1A/NR2D NMDA receptor (Rattus norvegicus, UniProt P35439+Q62645); assay: Electrophysiological assay, cloned NMDA receptor subunits expressed in Xenopus oocytes (1A/2D); format: cell-based; conditions: read-out: Subunits (IC50 (μM)) 1A/2D, mean IC50, inhibition of NMDA-activated membrane current responses, glutamate 100 μM + glycine
Excerpt: as §1
as §2, with “A sample of each clone was linearized by restriction enzyme digestion and cRNA was synthesized with T3 RNA polymerase. The CRNA was diluted to 400 ng/μl and stored in 1 μl aliquots at −80° C. until injection.” left out
as §3, §4

[1] = test system: maximal electroshock-induced seizures; assay: Maximal electroshock-induced seizures (MES); format: in vivo, mice; conditions: for ED50: Mus musculus, mice, tonic hindlimb extensor response, corneal electrodes 50 mA; for activity against maximal electroshock (MES): statement in words, refers to Table 3
Description: Maximal Electroshock-induced Seizures
Seizures were induced by application of current (50 mA, 60 pulses/sec, 0.8 sec pulse width, 1 sec duration, d.c.) through saline-coated corneal electrodes using a Ugo Basile ECT device (Model 7801). […] A tonic seizure was defined as a hindlimb extension in excess of 90 degrees from the plane of the body. Results were treated in a quantal manner.

[2] = mean IC50, inhibition of NMDA-activated membrane current responses, glutamate 100 μM + glycine, read-out: Subunits (IC50 (μM)) 1A/2B

SMILES	ED50 [1]	activity against maximal electroshock (MES) [1]	also measured
Nc1cccc(C#CCCN2CC=C(c3ccccc3)CC2)c1 [Ex. 14, 1-[4-(5-Aminophenyl)-3-butynyl]-4-phenyl-1,2,5,6-tetrahydropyridine]	–	–	IC50 (NR1A/NR2B NMDA receptor; read-out: Subunits (IC50 (μM)) 1A/2B, mean IC50, inhibition of NMDA-activated membrane current responses, glutamate 100 μM + glycine): 30 µM; IC50 (NR1A/NR2A NMDA receptor; read-out: Subunits (IC50 (μM)) 1A/2A, mean IC50, inhibition of NMDA-activated membrane current responses, glutamate 100 μM + glycine): 40 µM; IC50 (NR1A/NR2C NMDA receptor): > 100 µM; IC50 (NR1A/NR2D NMDA receptor): > 100 µM
Nc1ccc(C#CCCN2CCC(Cc3ccccc3)CC2)cc1 [Ex. 30, 1-(4-(4-Aminophenyl)-3-butynyl)-4-benzylpiperidine]	1.8 mg/kg	potent activity	–
NCc1cccc(C#CCCN2CCC(Cc3ccccc3)CC2)c1 [Ex. 52, 3-[4-(4-Benzyl-piperidin-1-yl)-but-1-ynyl]-benzylamine]	–	–	IC50 (NR1A/NR2A NMDA receptor; mean IC50, inhibition of NMDA-activated membrane current responses, glutamate 100 μM + glycine, read-out: Subunits (IC50 (μM)) 1A/2A): 15 µM
Nc1ccc(C#CCN2CCC(Cc3ccccc3)CC2)cc1 [Ex. 63, 4-[3-(4-Benzyl-piperidin-1-yl)-prop-1-ynyl]-phenylamine]	–	–	IC50 (NR1A/NR2B NMDA receptor; [2]): 12 µM
Cc1ccc(CC2(O)CCN(CCC#Cc3ccc(N)cc3)CC2)cc1 [Ex. 77, 1-(1-(4-Aminophenyl)-1-butyn-4-yl)-4-hydroxy-4-(4-methylbenzyl)piperidine]	0.4 mg/kg	–	–
CC(=O)Nc1ccc(C#CCCN2CCC(Cc3ccccc3)CC2)cc1 [Ex. 53, N-{4-[4-(4-Benzyl-piperidin-1-yl)-but-1-ynyl]-phenyl}-acetamide]	8 mg/kg	potent activity	–
C(#Cc1ccccc1)CCN1CCC(Cc2ccccc2)CC1 [Ex. 18, 4-Benzyl-1-(4-phenyl-3-butynyl)piperidine]	3.5 mg/kg	potent activity	–
CCCCNC(=N)Nc1cccc(C#CCCN2CCC(O)(c3ccc(Cl)cc3)CC2)c1 [Ex. 28, N-n-Butyl-N′-(3-(4-(4-(4-chlorophenyl)-4-hydroxy)piperidinyl)butynyl)phenylguanidine]	10 mg/kg	potent activity	melting point: 98 to 100 °C
Cc1ccc(CC2CCN(CCC#Cc3ccc(N)cc3)CC2)cc1 [Ex. 39, 4-{4-[4-(4-Methyl-benzyl)-piperidin-1-yl]-but-1-ynyl}-phenylamine]	2.5 mg/kg	potent activity	–
Cc1ccc(CC2CCN(CCC#Cc3ccc(O)cc3)CC2)cc1 [Ex. 67, 4-{4-[4-(4-Methyl-benzyl)-piperidin-1-yl]-but-1-ynyl}-phenol]	6 mg/kg	potent activity	–
CNc1ccc(C#CCCN2CCC(Cc3ccccc3)CC2)cc1 [Ex. 54, {4-[4-(4-Benzyl-piperidin-1-yl)-but-1-ynyl]-phenyl}-methyl-amine]	6.5 mg/kg	potent activity	–
O=[N+]([O-])c1ccc(C#CCCN2CCC(Cc3ccccc3)CC2)cc1 [Ex. 40, 4-Benzyl-1-[4-(4-nitro-phenyl)-but-3-ynyl]-piperidine]	–	–	IC50 (NR1A/NR2B NMDA receptor; [2]): 5 µM
NS(=O)(=O)c1ccc(C#CCCN2CCC(Cc3ccccc3)CC2)cc1 [Ex. 59, 4-[4-(4-Benzyl-piperidin-1-yl)-but-1-ynyl]-benzenesulfonamide]	> 5 mg/kg	–	–
Oc1ccc(C#CCCN2CCC(Cc3ccccc3)CC2)cc1 [Ex. 42, 4-[4-(4-Benzyl-piperidin-1-yl)-but-1-ynyl]-phenol]	2.5 mg/kg	potent activity	–
Nc1cccc(C#CCCN2CCC(O)(c3ccc(Cl)cc3)CC2)c1 [Ex. 8, 1-[4-(3-Aminophenyl)-3-butynyl]-4-hydroxy-4-(4-chlorophenyl)piperidine]	10 mg/kg	potent activity	–
